The values below come from patent publication US20160067301A1, “ANTAGONISM OF ABCG4, LYN KINASE, AND C-CBL E3 LIGASE TO INCREASE PLATELET COUNT AS THERAPY FOR THROMBOCYTOPENIA” (The Trustees of Columbia University in the City of New York, priority 2013, published 2016).

One experiment concerns WT and Abcg4−/− mice. Nature of the experiment: Platelet count after a single TPO injection in WT and Abcg4−/− mice. The following applies: for increase in the number of platelets: single dose TPO 50 μg per kg body weight (FIG. 2i). The class given is in vivo, mouse. The text has this:
The Institutional Animal Care and Use Committee of Columbia University approved all the mouse studies. Abcg4−/−, Abcg1−/− Abca1−/− and Abcg1−/− mice in a C57BL/6J background were created as described and used in this study. Abcg4−/− mice were backcrossed onto C57BL/6J mice for more than ten generations. WT (C57BL/6J) and Ldlr−/− (B6.129S7-Ld1rtm1Her) mice were obtained from The Jackson Laboratory (Bar Harbor, Me.). For bone marrow transplantation studies, bone marrow from WT, Abcg4−/−, Abcg1−/− Abca1−/− or Abcg1−/− mice was transplanted into WT or Ldlr−/− recipient mice as described. For atherosclerosis studies, bone marrow-transplanted recipient mice were fed a Western diet (TD88137, Harlan Teklad) for the indicated period of time. Bone marrow-specific retro-viral expression of murine c-MPL^W515L was established as described44 using WT C57BL/6J mice as the recipient and WT C57BL/6J or Abcg4−/− mice as the bone marrow donor. Where indicated, vehicle (saline), rHDL or TPO (R&D Systems) was injected at the indicted dose into the mice through the tail vein. rHDL (CSL-111) was provided by CSL Behring AG, Bern, Switzerland; CSL-111 is composed of human apoA-I and phosphatidylcholine from soy bean in a ratio of 1:150. […]
Complete blood counts were quantified using whole blood collected from tail bleeding. A FORCYTE Veterinary Hematology Analyzer (Oxford Science, Inc.) was used for the analysis.

In experiment [1] the test system is cell surface c-MPL on MkPs. As to the kind of experiment: Cell surface c-MPL expression on MkPs by flow cytometry. The class given is cell-based, mouse. The following applies: for cell surface c-MPL levels in MkPs: bone marrow progenitor cells from WT or Abcg4−/− mice, TPO 10 ng/ml, 2 hrs, Tolimidone 10 μM, CRIN-1 1 μM (FIG. 18). The protocol: After harvesting bone marrow progenitor cells, RBCs were lysed, and the cells were resuspended in FACS buffer, Bone marrow cells were stained for MkPs as stated above, and c-MPL or isotype control antibodies were included. Cells were then washed and stained with a fluorescently conjugated secondary rabbit-specific antibody to detect the antibody to c-MPL for a further 30 min on ice. Following this, the cells were washed, resuspended in FACS buffer and run on an LSRII flow cytometer. MEPs were identified as Lin^−c-Kit^+CD16/CD32^loCD34^loCD41^−, and MkPs were identified as Lin^−c-Kit^+CD16/CD32^loCD34^loCD41^+.
A general note: Flow cytometry measures light scatter and fluorescence of single cells or particles in a stream.

The next experiment has as its system MkPs. Nature of the experiment: MkP proliferation (EdU incorporation, flow cytometry). The class given is cell-based, mouse. The following applies: 16 h with TPO.
Another experiment has as its system bone marrow HSPCs. As to the kind of experiment: MK-CFU megakaryocyte colony-forming assay. The class given is cell-based, mouse. As to conditions: ABCG4-deficient cells (FIG. 13c). As for the experimental part: Primary bone marrow HSPCs obtained by FACS were plated in methylcellulose-based medium (5,000 cells per assay) containing TPO (50 ng interleukin-6 (IL-6) (20 ng ml^−1) and IL-3 (10 ng ml^−1) and incubated for 8 d according to the manufacturer's protocol (Megacult-C, Stemcell Technologies). Cultures were fixed, and megakaryocyte colonies were visualized by staining for acetylcholinesterase activity. Nuclei were counterstained with Harris' hematoxylin. Colonies containing more than three megakaryocytes were scored as MK-CFUs.

Experiment [2] has as its system c-CBL phosphorylation in MkPs. As to the kind of experiment: c-CBL tyrosine phosphorylation in MkPs in response to TPO (phospho-flow cytometry). The class given is cell-based, mouse. As to conditions: for c-CBL phosphorylation: 5 min TPO, CD 3 mM or CD-chol 30 min, rHDL 20 μg apoA-I ml-1 2 h, SU6656 10 μg ml-1 2 h. As for the experimental part: Bone marrow progenitor cells were stimulated with TPO at the indicated concentration for the specified period of time at 37° C. and then immediately diluted with ice-cold buffer and placed on ice to prevent further changes in phosphorylation. Cells were then centrifuged at 800 g for 2 min, and the pellet was resuspended in BD fix buffer (BD Biosciences) for 10 min on ice. The cells were washed with BD flow cytometry staining buffer, centrifuged, and then resuspended in BD cytofix/perm buffer III for 20 min. After this, the cells were washed and resuspended in BD staining buffer and incubated with lineage (Sca1, CD127, CD45R, CD19, CD11b, CD3e, TER-119, CD2, CD8, CD4 and Ly-6G, all FITC; eBioscience) and progenitor cell markers (c-Kit, CD16/CD32 (FcγRII/III), CD34, CD41 and antibody to p-c-CBL (Tyr700 human, Tyr698 mouse; BD Biosciences)) or an isotype control for 30 min on ice. The cells were then washed, resuspended in FACS buffer and run on an LSRII. The amount of phosphorylated c-Cbl was normalized against that of isotype control staining.

Where [3] appears, read: WT MkPs, with TPO 30 ng ml-1, CD 3 mM or CD-chol 30 min, rHDL 20 μg ml-1, MG132 10 μM 2 h, SU6656 10 μg ml-1 2 h.
The mark [4] stands for this setting: Abcg4−/− MkPs, with TPO 30 ng ml-1, CD 3 mM or CD-chol 30 min, rHDL 20 μg ml-1, SU6656 10 μg ml-1 2 h.

Where a SMILES comes first, the peptide text is derived from it. The star is where a group is joined. Cbz = O=C(OCc1ccccc1)*

Turning to “TPO: Thrombopoietin (R&D Systems), growth factor regulating megakaryocyte and platelet development”, in the experiment with WT and Abcg4−/− mice (Abcg4−/− mice (FIG. 17)), the “increase of platelet count after single injection of TPO, compared with wild type” value was “much more pronounced”. The “increase in the number of platelets” value came to 2.1 fold in the experiment with WT and Abcg4−/− mice (Abcg4−/− mice); 1.4 fold in the experiment with WT and Abcg4−/− mice (WT mice). Also, in the experiment on WT and Abcg4−/− mice (wild type mice (FIG. 17)), the “platelet count after single injection of TPO” value is reported as “induced increase of platelet count”.
Regarding `CC(C)C[C@@H](C=O)NC(=O)[C@H](CC(C)C)NC(=O)[C@H](CC(C)C)NC(=O)OCc1ccccc1` [MG132] (Cbz-Leu-Leu-Leu-aldehyde), the “cell surface c-MPL expression” value in experiment [1] (setting [3]) is listed as “increased c-MPL expression to a level similar to that in Abcg4−/− cells”.
As to methyl-β-cyclodextrin, the “MkP proliferation (EdU incorporation)” value in the experiment with MkPs (Abcg4−/− MkPs, CD 3 mM or CD-chol 30 min pretreatment, rHDL 20 μg ml-1 16 h) was “significantly reduced to levels similar to those in cyclodextrin-treated WT MkPs”; in the experiment on MkPs (Lyn−/− MkPs, cholesterol loading or depletion treatments), “unresponsive”; in the experiment on MkPs (WT MkPs, CD 3 mM or CD-chol 30 min pretreatment, rHDL 20 μg ml-1 16 h), “decreased the proliferation”. The “number of megakaryocyte colonies” value in the experiment on bone marrow HSPCs is recorded as “reversed the increase in the number of magakaryecyte colonies”. Moreover, the c-CBL phosphorylation entry in experiment [2] (Abcg4−/− MkPs) and in experiment [2] (WT MkPs) was “increased c-CBL phosphorylation” throughout. For the same compound, the “cell surface c-MPL expression” value in experiment [1] (setting [4]) was “significantly reduced to levels similar to those in cyclodextrin-treated WT MkPs”.
With `COc1c2c(cc3c1C(CN)N(C)CC3)OCO2` (stereo not shown) [CRIN-1], the “cell surface c-MPL levels in MkPs” value in experiment [1] was “increases”.
Tolimidone: the “cell surface c-MPL expression” value in experiment [1] (Abcg4−/− MkPs from hypercholesterolemic (WTD-fed) Ldlr−/− recipient mice, 10 μM, TPO, 2 h) is given as “reduced cell surface c-MPL expression”; in experiment [1] (WT MkPs from hypercholesterolemic (WTD-fed) Ldlr−/− recipient mice, 10 μM, TPO, 2 h) it was “reduced cell surface c-MPL expression”. The “cell surface expression of c-MPL” value in experiment [1] (Abcg4−/− MkPs from normocholesterolemic mice (FIG. 14)) is “completely reversed the increased cell surface expression of c-MPL”. Also, in experiment [1], the “cell surface c-MPL levels in MkPs” value is “decreases”.
With `CN(C)S(=O)(=O)c1ccc2c(c1)/C(=C/c1cc3c([nH]1)CCCC3)C(=O)N2` [SU6656], the c-CBL phosphorylation result in experiment [2] (Abcg4−/− MkPs) and in experiment [2] (WT MkPs) was “markedly decreased c-CBL phosphorylation” throughout. Also, in experiment [2] (SU6656 10 μg ml-1 for 2 h), the “difference in response to TPO between WT and Abcg4−/− MkPs (c-CBL phosphorylation, c-MPL expression)” value is reported as “abolished the difference in response to TPO”. Further, the “cell surface c-MPL expression” value in experiment [1] (setting [4]) and in experiment [1] (setting [3]) was “increased cell surface expression of c-MPL” in each case.
